Measured values from patent US20160213692A1, “ADVANCED METHOD OF TREATMENT AND MANAGEMENT OF CHRONIC HEPATITIS C INFECTION” (priority 2015, published 2016).
Marks after values point to notes of the source that are not given here. One block for each compound: values may come before it.

Legend:
[1] = test system: male Wistar rats; assay: Liver and renal function parameters in serum (Cobas e411) of treated rats
Method: (§1) A total of 80 male Wistar rats weighing 250-300 gm were used. All animals received humane care during the study protocol and during sacrifice.
(§2) The study duration was 5 weeks. Peg-INF-α-2a was prepared by diluting the content of a full syringe (180 μg/0.5 ml) in 9.5 ml sterile normal saline to prepare a final volume of 10 ml and the final concentration was 18 μg/ml. Each rat in the ‘P’, ‘PD’, ‘PR’ and ‘PRD’ groups received a weekly subcutaneous injection of 0.33 ml (6 μg/rat) for a total of 4 injections. The drug was prepared fresh on the day of use. […] Cholecalciferol ([…]) was prepared by adding 4 ml to 16 ml saline every morning to form a final concentration of 1000 IU/mL. Each rat in the ‘PD’, ‘PRD’, ‘PR’ and ‘VitD’ groups received 0.5 ml/day (500 IU/day) for the full study duration. Cholecalciferol, and its dose, was chosen over calcitriol, the hormonal form of vitamin D, to avoid the risk of soft tissue calcification (Salum et al, 2012). Following 4 injections, the rats were sacrificed in the fifth week at the time of the 5th injection would have been given. RBV and vitamin D3 were continued till the day before sacrifice.
(§3) All Rats were sacrificed on the same day under anesthesia using diethyl ether (Fisher Scientific UK Ltd, Loughborough, UK) a week after the last injection. 1 ml of blood was collected on EDTA for CBC and 3 ml of blood were collected in plane tube immediately after cutting the vena cava. Blood samples in plane tubes were centrifuged and the serum was stored in −20° C. for routine biochemistry and to measure serum concentrations of 25-OH vitamin D and EPO.
The quantitative measurement of serum liver enzymes (ALP, ALT and AST), total and indirect bilirubin, creatinine and urea was done using Cobas e411 (Roche Diagnostics International Ltd, Switzerland) according to the manufacturer protocol.

[2] = test system: male Wistar rats; assay: Haematological profile / erythrocyte indices (Sysmex XS 500) of treated rats
Method: as §1, §2, §3
Whole blood samples (1 ml) collected on EDTA were processed on Sysmex XS 500 (Sysmex, IL, USA) for the measurement of hemoglobin concentrations, RBCs count, packed cell volume (PCV), mean corpuscular volume (MCV), mean corpuscular hemoglobin (MCH) an mean corpuscular hemoglobin concentration (MCHC).

[3] = test system: monkey red cells; settings: in vitro incubation; cited from earlier work
[4] = test system: human red cells; settings: in vitro incubation; cited from earlier work
[5] = test system: rat red cells; settings: in vitro incubation; cited from earlier work
[6] = male, Wistar, rat, in vivo, 5 weeks
Method: as §1, §2
All Rats were sacrificed on the same day under anesthesia using diethyl ether (Fisher Scientific UK Ltd, Loughborough, UK) a week after the last injection. […]

[7] = serum, male Wistar rats, 5 weeks
[8] = whole blood, male Wistar rats, 5 weeks

Compound: C=C1CC[C@H](O)C/C1=C/C=C1\CCC[C@]2(C)[C@@H]([C@H](C)CCCC(C)C)CC[C@@H]12 [VitD group, cholecalciferol]
- ALT [1, 7]: 66.7 ± 4.2 U/L
- AST [1, 7]: 75.8 ± 4.2 U/L
- Creatinine [1, 7]: 0.2 ± 0.06 mg/dL
- Indirect Bilirubin [1, 7]: 0.15 ± 0.08 mg/dL
- Total Bilirubin [1, 7]: 0.51 ± 0.23 mg/dL
- Urea [1, 7]: 48.1 ± 5.2 mg/dL
- ALP ([1]; serum, male Wistar rats, 5 weeks, mean ± spread): 120.7 ± 12.3 IU/L
- development of anemia ([2]; addition of cholecalciferol 500 IU/day to Peg-INF-α and/or RBV, rats, 5 weeks): prevented the development of anemia
- Hb [2, 8]: 15.1 ± 0.7^d,f g/dL
- MCH [2, 8]: 17.4 ± 0.7 pg
- MCHC [2, 8]: 34 ± 0.8^c,e,g pg/dL
- MCV [2, 8]: 61.3 ± 1.8 fL
- PCV [2, 8]: 44.9 ± 1.8%
- RBCs [2, 8]: 8.9 ± 0.5^d,f ×10^6/μl

- ALP ([1]; rat, in vivo): 119 ± 9.9 IU/L
- Creatinine ([1]; rat, in vivo): 0.22 ± 0.03 mg/dL
- Indirect Bilirubin ([1]; rat, in vivo): 0.17 ± 0.07 mg/dL
- Total Bilirubin ([1]; rat, in vivo): 0.49 ± 0.14 mg/dL
- Urea ([1]; rat, in vivo): 47.3 ± 5.8 mg/dL
- 25-OH Vitamin D [6]: 42 ± 10^c,e ng/mL
- MCH ([2]; rat, in vivo): 17.6 ± 0.7 pg
- MCHC ([2]; rat, in vivo): 34.4 ± 0.9^c,e pg/dL
- MCV ([2]; rat, in vivo): 64.3 ± 4.2 fL
- PCV ([2]; rat, in vivo): 42.1 ± 2.7%
- RBCs ([2]; rat, in vivo): 7.58 ± 0.7^a,b,c,e ×10^6/μl
- Hb [2, 8]: 13.1 ± 1^a,b,c,e g/dL
Compound: NC(=O)c1ncn([C@@H]2O[C@H](CO)[C@@H](O)[C@H]2O)n1 [R group, ribavirin]
- ALT ([1]; rat, in vivo): 66.1 ± 2.6 U/L
- AST ([1]; rat, in vivo): 78.4 ± 3.2 U/L
- initial drug content retained by red cells [3]: 77%
- initial drug content retained by red cells [4]: 45%
- initial drug content retained by red cells [5]: 20%
